Earlier results as cited in patent US11865206B2 (priority 2018, dated 2024).
Read-outs that look alike come from different tables or passages of the source.

Experiments:
[1] = not given; remark: listed apart in the source

O=NN(CCCl)C(=O)NCCCl [Carmustine, 1,3-bis(2-chloroethyl)-1-nitrosourea]
Crossing of the blood brain barrier (following IV infusion): can cross the blood brain barrier | Oral bioavailability (oral): poor oral bioavailability | Solubility ([1]; in alcohol and lipids): highly soluble | Solubility ([1]; in water): poorly soluble
